Measured values: patent US20240167030A1, “METHODS AND COMPOSITIONS FOR ACCELERATING OLIGODENDROCYTE MATURATION” (Case Western Reserve University, priority 2021, published 2024)

Legend:
Assay type in all cases: cell-based, mouse
[1] = test system: SOX6 biomolecular condensates; test: confocal immunofluorescence coupled with RNA-FISH of Sox6 condensates in intermediate oligodendrocytes; settings: upon addition of the drug
Excerpt: Given the massive density of SOX6, an inherently disordered protein, at super-enhancer associated genes that increase sharply in intermediate oligodendrocytes and then decrease in myelinating oligodendrocytes, it was hypothesized that these regions represent SOX6 biomolecular condensates that stabilize, not inhibit, the intermediate oligodendrocyte state (FIGS. 8F and 8G) (Daneshvar et al., 2020; Henninger et al., 2020; Hnisz et al., 2017; Sabari et al., 2018). Performing high resolution confocal microscopy of immunofluorescence coupled with RNA-FISH confirmed Sox6 puncta in intermediate oligodendrocytes that co-localized with the predicted Sox6 aggregate gene Bcas1, whereas this co-localization was severely diminished at the non-aggregate gene Gapdh.

oligodendrocytes = test: RNA-seq gene set enrichment analysis (GSEA) of SOX6 knockout oligodendrocytes; settings: SOX6 knockout vs control (sgNTC) oligodendrocytes, day 3 of differentiation
Excerpt: (§1) Generation of mouse CRISPR KO OPCs: CRISPR knockout (KO) OPCs were created following a similar protocol used previously (Allan et al., 2020; Tripathi et al., 2019). In brief, guides were selected from the Brie library (Doench et al., 2016), cloned into the linearized CRISPRv2 backbone (Addgene 52961) (Sanjana et al., 2014), and sequence verified by sanger sequencing. HEK293T cells (Clonetech) were than transfected using lenti-X shots (manufacturer's protocol, Clonetech). Transfection media was replaced with N2B27 base media the following day. Lentivirus containing N2B27 was then collected after an additional 2 days, filtered, and supplemented with OPC growth factors PDGFA and FGF2 and added to OPCs at a ratio of 1:2 viral media to OPC growth media. The viral media was switched out for virus-free OPC growth the next day and allowed to recover for an additional 2 days. At this point, infected OPCs were selected for 96 hours in OPC growth media supplemented with a lethal dose of puromcyin (500 ng/mL). OPCs were allowed to recover in selection free media for at least 24 hours prior to being aliquoted and frozen down. For all experiments, infected CRISPR KO and non-targeting control OPCs were derived from the same original batch of EpiSC-derived mouse OPCs. qPCR was performed to validate a reduction of gene targets for each batch of CRISPR KO OPCs generated.
Bulk RNA-seq sample preparation and alignment: OPCs were lysed in TRIzol and RNA was isolated as described for qPCR. Purified RNA was then submitted to Novogene for library preparation and sequencing on the Illumina NovaSeq (150 bp paired end). For gene expression analysis, reads were aligned to the mm10 genome and quantified in transcripts per million (TPM) values using salmon 0.14.1 (github dot com slash COMBINE-lab slash salmon). Transcripts were summarized as gene-level TPM abundances with tximport. A gene with TPM>1 was considered expressed. Differential expression analysis was performed using DESEQ2 (bioconductor.org slash packages slash release slash bioc slash html slash DESeq2 dot html). Significant genes were called based on p-adj and fold change values as described in the results section.
RNA-seq was then performed on SOX6 knockout OPCs and differentiating oligodendrocyte cultures compared to non-targeting controls (FIGS. 10B and 11A). In agreement with binding at nearly all super-enhancers in OPCs, Sox6 knockout OPCs harbored a reduction in OPC signature genes and transcription factors such as Cspg4 and Sox10 (FIGS. 11A-11C). In differentiating oligodendrocytes, loss of SOX6 led to a reduction in Sox6 condensate gene expression (FIGS. 10B, 10C, and 11D). In agreement with these condensate genes stabilizing genes transiently expressed by intermediate oligodendrocytes, SOX6 knockout oligodendrocytes harbored a significant reduction in intermediate oligodendrocyte gene expression (FIGS. 10D and 11E).

SOX6 = test: Western blot of SOX6 in CRISPR-Cas9 knockout OPCs; settings: knockout OPCs compared to non-targeting control (sgNTC)
Excerpt: as §1, with “At this point, infected OPCs were selected for 96 hours in OPC growth media supplemented with a lethal dose of puromcyin (500 ng/mL). OPCs were allowed to recover in selection free media for at least 24 hours prior to being aliquoted and frozen down. For all experiments, infected CRISPR KO and non-targeting control OPCs were derived from the same original batch of EpiSC-derived mouse OPCs. qPCR was performed to validate a reduction of gene targets for each batch of CRISPR KO OPCs generated.” left out
Western blot: For cell culture derived protein samples, at least 1 million OPCs were collected and lysed in RIPA buffer (Sigma) supplemented with protease and phosphatase inhibitor (78441, Thermo Fisher) for at least 15 minutes and cleared by centrifugation at 13,000 g at 4° C. for 15 minutes. Protein concentrations were determined using the Bradford assay (Bio-Rad Laboratories). […] Membranes were then imaged and analyzed using Image Studio™ software. […]

Cc1sc2c(c1C)C(c1ccc(Cl)cc1)=N[C@@H](CC(=O)OC(C)(C)C)c1nnc(C)n1-2 [JQ1]
effect on Sox6 biomolecular condensates [1]: dissolved

sgSox6 g2: single guide RNA for CRISPR-Cas9 SOX6 knockout, sequence AGAACACGCTTTGAGAACCT (listed as DNA, chemistry not given here)
GSEA of SOX6 aggregate (condensate) genes (oligodendrocytes): significant depletion
GSEA of in vivo OPC signature genes (oligodendrocytes): significant depletion
GSEA of in vivo intermediate oligodendrocyte signature genes (oligodendrocytes): significant depletion
GSEA of in vivo myelinating oligodendrocyte signature genes (oligodendrocytes): enrichment
SOX6 expression (SOX6): strong reduction

sgSox6 g1: single guide RNA for CRISPR-Cas9 SOX6 knockout, sequence TTGACGGAATGAACTGTACG (listed as DNA, chemistry not given here)
GSEA of SOX6 aggregate (condensate) genes (oligodendrocytes): significant depletion
GSEA of in vivo OPC signature genes (oligodendrocytes): significant depletion
GSEA of in vivo intermediate oligodendrocyte signature genes (oligodendrocytes): significant depletion
GSEA of in vivo myelinating oligodendrocyte signature genes (oligodendrocytes): enrichment
SOX6 expression (SOX6): strong reduction
